Results: the supplement of paper PMC10883282
± gives the standard deviation of the averaged measurements.

How the values were obtained:
Experiment in all cases: relative viability vs DMSO control (72 h) (fraction); higher = more viable cells
SK-ES-1 = test system: SK-ES-1
Summary of the method: (§1)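 Serially diluted compound, 2.5 µl from source plates spanning 10 mM to 0.0002 mM, was added 24 h after sarcoma cell lines were seeded in 384-well plates at densities targeting 80–90% confluence. Plates then sat 72 h at 37 °C, 5% CO2, with 0.1% DMSO vehicle and a 5 µM positive control. Relative viability came from ATPLite as percent growth, averaged over up to triplicate wells, and was rescaled with 1 as full and 0 as none.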

SK-LMS-1 = test system: SK-LMS-1
Summary of the method: as §1

SW684 = test system: SW684
Summary of the method: as §1

SW872 = test system: SW872
Summary of the method: as §1

SYO-1 = test system: SYO-1
Summary of the method: as §1

VA-ES-BJ = test system: VA-ES-BJ
Summary of the method: as §1

COc1cc(Nc2ncc3c(n2)-c2ccc(Cl)cc2C(c2c(F)cccc2OC)=NC3)ccc1C(=O)O [Alisertib]
relative viability
Conditions	SK-ES-1	SK-LMS-1	SW684	SW872	SYO-1	VA-ES-BJ
0.00017 µM	1.01 ± 0.071	1.03 ± 0.066	1.16 ± 0.033	1.02 ± 0.048	0.934 ± 0.017	0.995 ± 0.029
0.00051 µM	1.05 ± 0.024	1.02 ± 0.042	1.17 ± 0.055	0.974 ± 0.054	0.9195 ± 0.0088	0.997 ± 0.029
0.00152 µM	1.05 ± 0.034	1.01 ± 0.014	1.18 ± 0.02	0.989 ± 0.031	0.903 ± 0.017	0.984 ± 0.052
0.00457 µM	1.01 ± 0.014	1.02 ± 0.031	1.15 ± 0.025	1.03 ± 0.02	0.863 ± 0.053	0.992 ± 0.019
0.01372 µM	0.965 ± 0.051	1 ± 0.082	1.1 ± 0.054	1.01 ± 0.014	0.826 ± 0.067	0.969 ± 0.042
0.04115 µM	0.748 ± 0.035	0.806 ± 0.036	1.09 ± 0.04	1.01 ± 0.022	0.783 ± 0.038	0.919 ± 0.015
0.1235 µM	0.197 ± 0.012	0.772 ± 0.013	1.01 ± 0.052	0.959 ± 0.029	0.618 ± 0.034	0.747 ± 0.0085
0.3704 µM	0.0886 ± 0.0037	0.78 ± 0.016	1.01 ± 0.0077	0.731 ± 0.017	0.459 ± 0.026	0.604 ± 0.063
1.111 µM	0.0443 ± 0.0024	0.803 ± 0.039	0.983 ± 0.045	0.759 ± 0.014	0.371 ± 0.02	0.571 ± 0.03
3.333 µM	0.0464 ± 0.0026	0.815 ± 0.019	0.919 ± 0.094	0.738 ± 0.029	0.355 ± 0.03	0.523 ± 0.027
10 µM	0.0555 ± 0.0075	0.678 ± 0.012	0.869 ± 0.054	0.661 ± 0.013	0.3041 ± 0.0013	0.505 ± 0.03
